Assay results from publication PMC7802075 (ACS Infectious Diseases, 2020).

These compounds were tested against T1, LmjIPCS (inositol phosphorylceramide synthase from L. major) (Leishmania major, UniProt E9AFX2) (assay: biochemical). Conditions: not given.
T1 sequence (E9AFX2 1-338): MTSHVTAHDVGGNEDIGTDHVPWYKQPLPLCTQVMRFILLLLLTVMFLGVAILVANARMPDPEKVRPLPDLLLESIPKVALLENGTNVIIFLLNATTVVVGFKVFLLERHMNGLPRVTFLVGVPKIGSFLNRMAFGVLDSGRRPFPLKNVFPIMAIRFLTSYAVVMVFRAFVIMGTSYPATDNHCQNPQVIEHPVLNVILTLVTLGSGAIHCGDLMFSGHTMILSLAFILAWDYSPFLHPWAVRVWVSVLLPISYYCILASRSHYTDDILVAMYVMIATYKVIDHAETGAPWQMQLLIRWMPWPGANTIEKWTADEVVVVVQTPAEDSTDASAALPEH
Type: biochemical
Design: inhibition: dose or concentration left out as unconfirmed

Compared with `CCN(CC)C(C)CN1c2ccccc2Sc2ccccc21` (stereo not shown) [ETHOPROPAZINE], `CCN(CC)Cc1cc(Nc2ccnc3cc(Cl)ccc23)ccc1O` [AMODIAQUINE] is lower in “20mM inhibition LmjIPCS” value: 63% for the first, 59% for the second.

First: O=C(CCCN1CCN(c2ccccn2)CC1)c1ccc(F)cc1 [AZAPERONE]
Second: OCCOCCN1CCN(C(c2ccccc2)c2ccc(Cl)cc2)CC1 (stereo not shown) [HYDROXYZINE PAMOATE]
The “20mM inhibition LmjIPCS” value of the first is lower: 35% for the first, 45% for the second.

`O=c1cc(-c2ccc(O)cc2)oc2cc(O)cc(O)c12` [APIGENIN] and `CC[C@@]1(O)C[C@H](O[C@H]2C[C@H](N(C)C)[C@H](O)[C@H](C)O2)c2c(cc3c(c2O)C(=O)c2c(O)cccc2C3=O)[C@H]1C(=O)OC` [AKLAVINE] are the same in “20mM inhibition LmjIPCS” value: 59% for the first, 59% for the second.

Compared with `Cn1cnc([N+](=O)[O-])c1Sc1ncnc2nc[nH]c12` [AZATHIOPRINE], `NCCCCCCNS(=O)(=O)c1cccc2c(Cl)cccc12` is higher in “20mM inhibition LmjIPCS” value: 39% for the first, 59% for the second.

Same assay, conditions: NINDS set screen, single concentration 20mM as printed

In the case of `Cc1c(N(C)CS(=O)(=O)[O-])c(=O)n(-c2ccccc2)n1C.[Na+]` [DIPYRONE], the “20mM inhibition LmjIPCS” value is reported as -7.57%.

Same assay, conditions: NINDS set screen, single concentration printed as 20mM

Compared with `CC[C@H]1OC(=O)[C@H](C)[C@@H](O[C@H]2C[C@@](C)(OC)[C@@H](O)[C@H](C)O2)[C@H](C)[C@@H](O[C@@H]2O[C@H](C)C[C@H](N(C)C)[C@H]2O)[C@](C)(O)C[C@@H](C)/C(=N\OCOCCOC)[C@H](C)[C@@H](O)[C@]1(C)O` [ROXITHROMYCIN], `CC(=O)[C@H]1CC[C@H]2[C@@H]3CC=C4C[C@@H](O)CC[C@]4(C)[C@H]3CC[C@]12C` [PREGNENOLONE] is lower in “20mM inhibition LmjIPCS” value: 59% for the first, 52% for the second.

First: Nc1ccc(/N=N/c2ccccc2)c(N)n1 [PHENAZOPYRIDINE]
Second: CC1(C)[C@H]2CC[C@@]1(C)C(=O)C2 [1R-CAMPHOR]
The “20mM inhibition LmjIPCS” value of the first is higher: 52% for the first, 46% for the second.

Same assay, conditions: NINDS set screen; read-out: inhibition LmjIPCS

Going from `CC[C@@H]1C(=O)OC[C@@H]1Cc1cncn1C` [PILOCARPINE] to `CCC(=O)O[C@H]1[C@H](O[C@@H]2[C@@H](C)[C@H](O[C@H]3C[C@@](C)(OC)[C@@H](O)[C@H](C)O3)[C@@H](C)C(=O)O[C@H](CC)[C@@](C)(O)[C@H](O)[C@@H](C)C(=O)[C@H](C)C[C@@]2(C)O)O[C@H](C)C[C@@H]1N(C)C` [ERYTHROMYCIN ESTOLATE], the inhibition rises from -4.6% to 22%.

Compared with `O=C(O)c1ccccc1OP(=O)(O)O` [FOSFOSAL], `COC(=O)C(C)c1ccc(C(=O)c2cccs2)cc1` (stereo not shown) [SUPROFEN METHYL ESTER] is lower in inhibition: 13% for the first, -10% for the second.

`CC1=C(/C=C/C(C)=C/C=C/C(C)=C/CO)C(C)(C)CCC1` [RETINOL] showed an inhibition of 21%.

Same assay, conditions: read-out: 20mM inhibition LmjIPCS

Compared with `Cn1c(=O)c2[nH]cnc2n(C)c1=O` [THEOPHYLLINE], `CCC1(c2ccccc2)C(=O)NCNC1=O` [PRIMIDONE] is lower in inhibition at 20000 µM: 11% for the first, -1.2% for the second.

Compared with `NC(=O)c1ncn([C@@H]2O[C@H](CO)[C@@H](O)[C@H]2O)c1O` [MIZORIBINE], `CC1(C)O[C@@H]2C[C@H]3[C@@H]4C[C@H](F)C5=CC(=O)C=C[C@]5(C)[C@H]4[C@@H](O)C[C@]3(C)[C@]2(C(=O)CO)O1` [FLUNISOLIDE] is lower in inhibition at 20000 µM: 6.58% for the first, -10% for the second.

Going from `CN1CCCN=C1/C=C/c1cccs1` to `CN1CCC[C@H]1c1cccnc1` [NICOTINE], the inhibition at 20000 µM falls from 20% to 10%.

Compared with `OC[C@@H]1CCCN2CCCC[C@H]12` [LUPININE], `CC[C@@H](C)C(=O)O[C@H]1[C@H](O)[C@H]2[C@@H](CN3C[C@@H](C)CC[C@H]3[C@@]2(C)O)[C@@H]2C[C@]34O[C@]5(O)[C@@H](OC(=O)[C@](C)(O)[C@@H](C)O)CC[C@@]3(C)[C@@H]5[C@@H](OC(C)=O)[C@@H](OC(C)=O)[C@H]4[C@@]21O` (stereo in doubt) [PROT[…]] is higher in inhibition at 20000 µM: 11% for the first, 14% for the second.

First: CC(C)C[C@H](CN)CC(=O)O [PREGABALIN]
Second: [N-]=[N+]=CC(=O)OC[C@H](N)C(=O)O [AZASERINE]
The inhibition at 20000 µM of the first is lower: 12% for the first, 14% for the second.

First: CC[N+](CC)(CC)CCOc1cccc(OCC[N+](CC)(CC)CC)c1OCC[N+](CC)(CC)CC [GALLAMINE TRIETHIODIDE]
Second: CC(C)(Sc1cc(C(C)(C)C)c(O)c(C(C)(C)C)c1)Sc1cc(C(C)(C)C)c(O)c(C(C)(C)C)c1 [PROBUCOL]
The inhibition at 20000 µM of the first is lower: -1.76% for the first, 25% for the second.

First: N#C/C(=C\c1cccc(O)c1)C(=O)O [alpha-CYANO-3-HYDROXYCINNAMIC ACID]
Second: CC(C)(C)C(=O)C(Oc1ccc(Cl)cc1)n1cncn1 (stereo not shown) [TRIADIMEFON]
The inhibition at 20000 µM of the first is lower: 8% for the first, 17% for the second.

First: CCN1CCN(C(=O)N[C@@H](C(=O)N[C@@H]2C(=O)N3C(C(=O)O)=C(CSc4nnnn4C)CS[C@H]23)c2ccc(O)cc2)C(=O)C1=O [CEFOPERAZONE]
Second: CC[C@@]1(O)C[C@H](O)c2c(cc3c(c2O)C(=O)c2c(O)ccc(O)c2C3=O)[C@H]1C(=O)OC [RUTILANTINONE]
The inhibition at 20000 µM of the first is lower: 13% for the first, 27% for the second.

Going from `CNC(=O)Oc1ccc2c(c1)[C@]1(C)CCN(C)[C@@H]1N2C` [PHYSOSTIGMINE] to `CC[C@H]1OC(=O)[C@H](C)C(=O)[C@H](C)[C@@H](O[C@@H]2O[C@H](C)C[C@H](N(C)C)[C@H]2O)[C@](C)(OC)C[C@@H](C)C(=O)[C@H](C)[C@H]2N(CCCCn3cnc(-c4cccnc4)c3)C(=O)O[C@]12C` [TELITHROMYCIN], the inhibition at 20000 µM falls from 15% to 3.66%.

Compared with `CC1=NS(=O)(=O)c2cc(Cl)ccc2N1` [DIAZOXIDE], `Cc1[nH]ccc2c1[nH]c1cc(=O)ccc12` [HARMOL] is higher in inhibition at 20000 µM: 5% for the first, 15% for the second.

`NCCCCNCCCN` [SPERMIDINE] gave an inhibition at 20000 µM of 12%.

Same assay, conditions: read-out: inhibition LmjIPCS

Going from `CC(C)Cc1ccc(C(C)C(=O)O)cc1` (stereo not shown) [IBUPROFEN] to `CC(C)[N+](C)(CCC(C(N)=O)(c1ccccc1)c1ccccc1)C(C)C` [ISOPROPAMIDE], the inhibition rises from 2.58% to 11%.

First: COc1ccc2cc3[n+](cc2c1OC)CCc1cc2c(cc1-3)OCO2 [BERBERINE]
Second: COc1ccc(Cl)cc1C(=O)NCCc1ccc(S(=O)(=O)NC(=O)NC2CCCCC2)cc1 [GLYBURIDE]
The inhibition of the first is lower: 6% for the first, 13% for the second.

First: CC1(C)S[C@@H]2[C@H](NC(=O)Cc3ccccc3)C(=O)N2[C@H]1C(=O)O [BENZYL PENICILLIN]
Second: CC(C)(Oc1ccc(CCNC(=O)c2ccc(Cl)cc2)cc1)C(=O)O [BEZAFIBRATE]
The inhibition of the first is higher: 21% for the first, 11% for the second.

Compared with `CN(C)CCOC(C)(c1ccccc1)c1ccccn1` (stereo not shown) [DOXYLAMINE], `O=C(/C=C/c1ccc(O)cc1)c1ccc(O)cc1O` [ISOLIQUIRITIGENIN] is higher in inhibition: 9% for the first, 11% for the second.

Compared with `Cc1c(C(N)=O)cc([N+](=O)[O-])cc1[N+](=O)[O-]` [DINITOLMIDE], `O=C(O)P(=O)(O)O` [FOSCARNET] is lower in inhibition: 5% for the first, 2% for the second.

For `C[C@@H]1O[C@@H]1P(=O)(O)O` [FOSFOMYCIN], the inhibition was 16%.

Same assay, conditions: screening of NINDS set, sheet Screen 1; read-out: inhibition LmjIPCS

First: NC1=NCCN1CC(=O)O [CYCLOCREATINE]
Second: CC(=O)NCCCCCC(=O)O [ACEXAMIC ACID]
The inhibition of the first is higher: 11% for the first, 6% for the second.

First: CCC1(C)CC(=O)NC1=O (stereo not shown) [ETHOSUXIMIDE]
Second: Cn1c(=O)[nH]c2nc[nH]c2c1=O [1-METHYLXANTHINE]
The inhibition of the first is lower: 6% for the first, 11% for the second.

Going from `COc1c(N2CCNC(C)C2)c(F)cc2c(=O)c(C(=O)O)cn(C3CC3)c12` (stereo not shown) [GATIFLOXACIN] to `CC(C)[C@H]1CC[C@H](C(=O)N[C@H](Cc2ccccc2)C(=O)O)CC1` [NATEGLINIDE], the inhibition rises from 2.29% to 7%.

Work on `CC(=O)N[C@@H](Cc1c[nH]c2ccccc12)C(N)=O` [ACETYLTRYPTOPHANAMIDE] yielded an inhibition of 1.65%.

Same assay, conditions: single concentration 20mM as printed; screening of NINDS set, sheet Screen 1

For `CC1CCC(C(C)C)C(O)C1` (stereo not drawn) [MENTHOL(-)], the “20mM inhibition LmjIPCS” value was 4%.
